Consider 7 compounds from ChEMBL document CHEMBL1137887, “Application of the Stille coupling reaction to the synthesis of C2-substituted endo-exo unsaturated pyrrolo[2,1-c][1,4]benzodiazepines (PBDs)” (2004).

What is called GI50 is the concentration that inhibits growth by half.

A value given as a limit tells only on which side of the number the result lay.

The subject of this test is Panel NCI-60 (60 carcinoma cell lines). Put plainly: In vitro mean of concentrations that inhibits cell growth across 60 cell lines of the NCI panel after incubation for 48 hr at 37 degree C was measured using SRB assay. Format: functional. The settings on record: Homo sapiens.
On to `COc1cc2c(cc1OC)C(=O)N1C=C(C#Cc3ccccc3)C[C@H]1C=N2`, for which the GI50 is less than 10 nM. For `COc1cc2c(cc1OC)C(=O)N1C=C(c3cccs3)C[C@H]1C=N2` the value was 20 nM.

On to `COc1cc2c(cc1OC)C(=O)N1C=C(c3ccccc3)C[C@H]1C=N2`, for which the GI50 was less than 10 nM.

Compound `COc1cc2c(cc1OC)C(=O)N1C=C(c3ccco3)C[C@H]1C=N2` gave a concentration for 50% growth inhibition (GI50) of less than 10 nM. For `COc1cc2c(cc1OC)C(=O)N1CCC[C@H]1C=N2` the value was 2390 nM; for `COc1cc2c(cc1OC)C(=O)N1C=CC[C@H]1C=N2`, 1280 nM. For `C=CC1=CN2C(=O)c3cc(OC)c(OC)cc3N=C[C@@H]2C1` the value was 120 nM.
